Experimental findings from patent US20110020837A1, “Method for isolating or identifying a target protein interacting with a lipid in a cell” (Universiteit Utrecht Holding B.V., priority 2009, published 2011) are described below.

The nature of data set [1]: UV activation of the photoactivatable diazirine ring, loss of absorption at 349.5 nm. Type of data set: physicochemical. To be noted: ethanolic solution, thirty seconds of irradiation, 200 W mercury lamp, filter below 350 nm. The method, then:
FIG. 9. Panel A, Activation of the photoactivatable diazirine ring was optimized by exposing an ethanolic solution of 10-azi-stearic acid (10-ASA) under the described conditions to UV-light for the indicated time. Absorbance at 349.5 nm was measured to monitor decay of 10-ASA. Panel B, A solution of defatted BSA (1 mg/ml) was irradiated under the same conditions and analyzed by SDS-PAGE.
Samples were irradiated applying a 200 W high pressure mercury lamp (Oriel Photomax) equipped with a PYREX® glass filter to remove wavelengths below 350 nm. Samples were placed on ice at a distance from 35 cm from the light source. In order to optimize cross-linking conditions we made use of the characteristic absorption of the diazirine group (FIG. 8). An ethanolic solution of 10-azi stearic acid (10-ASA) was irradiated under the conditions described above and the loss of absorption at 349.5 nm was monitored (FIG. 9, Panel A). Thirty seconds of irradiation activated 95% of the photoactivatable group. Samples were UV irradiated for 1 minute. To exclude degradation of proteins under these conditions a 1 mg/ml solution of BSA was irradiated up to 5 minutes and analyzed by gel electrophoresis and subsequent Coomassie staining (FIG. 9, Panel B). […]

The test system of data set [2] is CHO-CGalT cells. Description: Morphology of cells after labeling with pacFAs. It is filed as cell-based. To be noted: cells labeled with pacFA.
Data set [3] deals with CHO-CGalT cells. Description: Incorporation of pacFAs into cellular lipids, lipid extracts analysed by nano-ESI-MS/MS. It is filed as cell-based. The following applies: 100 μM, 16 hours. The procedure: FIGS. 7A and 7B. Mass spectrometric analysis of photoactivatable and clickable PC species. CHO-CGaIT cells (−5×10^7 cells) were labeled for 16 hours in delipidated medium in the absence (upper panel) or presence (lower panel) of 100 μM (FIG. 7A) C15pacFA or (FIG. 7B) C16pacFA. Lipids were extracted, dried and subsequently dissolved in 5 mM ammonium acetate in MeOH and subjected to nano-ESI-MS/MS. Shown are PREC184 spectra visualizing choline phosphate-containing lipids. Abbreviations give the total number of carbon atoms of fatty acids attached and the numbers of double bonds within the fatty acid. Transparent bars highlight PC species containing the pacFAs.
Given the small size of fatty acids, additional functional groups might have an impact on their physical properties. Due to the rigidity of the triple bond pacFAs are slightly kinked in the end and their overall length is shorter compared with their corresponding natural counterparts. […] Phosphatidylcholine (PC) is the major lipid class in eukaryotic cells. To analyze choline phosphate containing species, a precursor ion scanning procedure was employed selecting for fragments with a mass of 184 Da. […] UV irradiation of the lipid extracts gave rise to peaks with a mass 28 Da lower than the corresponding pacPC species due to the release of nitrogen followed by either an α-hydrogen migration or an intramolecular crosslink of the carbene (data not shown).^[4] […] SM16:0 is the major SM species in CHO cells. Its biosynthesis requires two palmitoyl-CoA: (i) as a precursor of the sphingoid backbone and (ii) for its N-acylation. The length of the N-acylated fatty acid is strictly controlled since there is no SM14:0 and only a minor amount of SM18:0 in CHO cells.^[5] Therefore, we assumed that the chain length of C15pacFA might interfere with its incorporation into SM. […]
Lipids were extracted according to Bligh and Dyer and analyzed as described previously (K. Retra, O. B. Bleijerveld, R. A. van Gestel, A. G. Tielens, J. J. van Hellemond, J. F. Brouwers, Rapid Commun. Mass Spectrom. 2008, 22, 1853.^[20]

Another data set deals with HeLa cells. The data set is described as follows: Cell imaging of bifunctional lipids: UV fixation, lipid extraction, alexa-azide click, fluorescent microscopy. It is filed as cell-based. To be noted: UV irradiated versus non-irradiated, non-crosslinked lipids extracted. The method, then:
Microscopy of lipids requires a fluorescent tag on the lipid. In contrast to polyene lipids, most fluorescent tags interfere with the properties of thus labeled lipids.^[24] […] Lipids are highly dynamic and their chemical fixation remained difficult. […] To this end, C15pacFA was administered to cells. Lipids were fixed in vivo by UV-irradiation followed by the fixation of cells with methanol. In order to remove non-protein-crosslinked lipids, cells were extracted according to Bligh and Dyer.^[27] Samples were subjected to click reactions with alexa-azide and lipids were visualized by fluorescent microscopy.
HeLa cells grown on cover slips in a 24-well plate were labeled for 1 hour in 0.5 ml DMEM 4.5 g/liter glucose supplemented with 10% delipidated FCS and 100 μM C15pacFA. The cells were washed with 0.5 mL PBS, overlaid with 0.5 mL PBS and UV irradiated on ice for 2 minutes. After UV irradiation the cells were fixed with 0.5 mL of −20° C. cold MeOH for 10 minutes. After fixation cells were subjected to one, two or three rounds of lipid extraction according to Bligh and Dyer using 0.5 ml of CHCl3/MeOH/AcOH 10:55:0.75 v/v for each extraction (for each extraction coverslips were incubated for 1 minute at room temperature). The coverslips were washed with 0.5 mL PBS and then subjected to click reactions. […]

For another data set, the target named is lysozyme (Gallus gallus, UniProt P00698). Description: Photo-affinity labeling of lysozyme with C15pacFA (specificity control), click reaction with biotin-azide, Western blot. It is filed as binding. To be noted: same conditions as BSA; protein known not to interact with lipids. The procedure:
FIG. 5. Panel A, Proof-of-concept for the specific interaction of pacFA with a fatty acid binding protein. An ethanolic solution of C15pacFA was added to a solution of defatted-BSA or lysozyme in PBS as described above. After incubating for 1 hour at room temperature samples were UV-irradiated and 20 μl were subjected to click reaction with biotin-azide. Samples were analyzed by SDS-PAGE, followed by Western blotting and detection via NeutrAvidin coupled to horse radish peroxidase. Panel B, SDS-PAGE and subsequent staining with Coomassie brilliant blue.
Serum albumin binds and transports fatty acids. As a proof-of-concept that C15pacFA can be used to tag proteins with an affinity for fatty acids, defatted bovine serum albumin (BSA) was incubated with C15pacFA and subsequently UV-irradiated. […]
Samples were irradiated applying a 200 W high pressure mercury lamp (Oriel Photomax) equipped with a PYREX® glass filter to remove wavelengths below 350 nm. […] An ethanolic solution of 10-azi stearic acid (10-ASA) was irradiated under the conditions described above and the loss of absorption at 349.5 nm was monitored (FIG. 9, Panel A). […] To exclude degradation of proteins under these conditions a 1 mg/ml solution of BSA was irradiated up to 5 minutes and analyzed by gel electrophoresis and subsequent Coomassie staining (FIG. 9, Panel B). […]
(In western blotting, separated proteins are transferred to a membrane and probed.)

Data set [4] concerns the target defatted bovine serum albumin (BSA) (Bos taurus, UniProt P02769). The data set is described as follows: Photo-affinity labeling of defatted BSA with C15pacFA, click reaction with biotin-azide, Western blot. It is filed as binding. To be noted: incubation with C15pacFA, UV-irradiation and click reaction with biotin-azide.
Experimental: As a proof-of-concept that C15pacFA can be used to tag proteins with an affinity for fatty acids, defatted bovine serum albumin (BSA) was incubated with C15pacFA and subsequently UV-irradiated. Thereafter, the mixture was subjected to a click reaction, applying biotin-azide (see FIG. 5). […] CuSO4 serves as a source for Cu(I) that is required for the catalytic cycle of the [3+2] cyclo-addition and was formed in situ by the addition of the reducing agent TCEP.
Samples were irradiated applying a 200 W high pressure mercury lamp (Oriel Photomax) equipped with a PYREX® glass filter to remove wavelengths below 350 nm. Samples were placed on ice at a distance from 35 cm from the light source. […] Samples were UV irradiated for 1 minute. […]
Data set [5] concerns membrane and cytosolic proteins of CHO-CGalT cells. Description: In vivo labeling of cells with C15pacFA, alexa488-azide click of membranes and cytosol, SDS-PAGE in-gel fluorescence. Type of data set: cell-based. To be noted: membranes and cytosol after UV irradiation. The procedure:
FIG. 2. In vivo labeling of proteins interacting with lipids. CHO-CGalT cells were labeled with and without 100 μM C15pacFA for 16 hours. Where indicated, cells were UV irradiated. Total membranes were separated from cytosol. The cytosolic proteins were precipitated by CHCl3/MeOH precipitation and total membranes as well as the cytosolic precipitate were subjected to click reaction conditions using alexa488-azide or biotin-azide. Panel A, Proteins labeled with alexa488-azide were separated by SDS-PAGE and analyzed by in-gel fluorescence. […] The lanes were cut into ten gel pieces as indicated and analyzed by mass spectrometry as described herein. […]
In order to see whether pacFAs can be used to investigate protein-lipid interactions in vivo, we administered C15pacFA to cells. […] Both membranes and cytosol were subjected to click reaction conditions and samples were analyzed by SDS-PAGE and in-gel fluorescence (FIG. 2). […] 208 proteins were identified that were exclusively detected upon labeling cells with C15pacFA (FIG. 2, Panel D, lane III). […] Proteins that were exclusively detected upon labeling with C15pacFA and subsequent cross-linking (lane IV) are given in Table 2. […]

The nature of data set [6]: Stability of terminal alkyne towards UV irradiation, 1H-NMR analysis. The following applies: irradiation for 5 minutes. It is filed as physicochemical.

Sequence of defatted bovine serum albumin (BSA) (P02769 25-607): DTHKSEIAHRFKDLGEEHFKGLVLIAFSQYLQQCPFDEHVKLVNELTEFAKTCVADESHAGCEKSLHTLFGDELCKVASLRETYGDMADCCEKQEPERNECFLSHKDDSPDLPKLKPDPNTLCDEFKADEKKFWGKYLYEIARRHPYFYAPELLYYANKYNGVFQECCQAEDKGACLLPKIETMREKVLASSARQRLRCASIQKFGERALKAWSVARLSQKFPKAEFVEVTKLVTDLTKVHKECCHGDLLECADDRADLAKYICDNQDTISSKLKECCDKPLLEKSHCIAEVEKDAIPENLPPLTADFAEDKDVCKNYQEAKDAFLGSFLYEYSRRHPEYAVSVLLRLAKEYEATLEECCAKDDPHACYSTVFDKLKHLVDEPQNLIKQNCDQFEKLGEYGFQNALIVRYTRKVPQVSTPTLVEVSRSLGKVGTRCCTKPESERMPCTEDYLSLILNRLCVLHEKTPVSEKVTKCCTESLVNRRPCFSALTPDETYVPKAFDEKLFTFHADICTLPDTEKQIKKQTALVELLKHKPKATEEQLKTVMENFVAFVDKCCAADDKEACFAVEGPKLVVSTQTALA
Sequence of lysozyme (P00698 19-147): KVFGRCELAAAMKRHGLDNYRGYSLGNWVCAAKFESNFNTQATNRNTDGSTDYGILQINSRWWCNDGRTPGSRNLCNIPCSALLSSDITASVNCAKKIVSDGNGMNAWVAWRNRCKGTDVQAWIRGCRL

As to `CCCCCCCCC1(CCCCCCCCC(=O)O)N=N1` [10-ASA, 10-azi-stearic acid], in data set [1], the “activation of the photoactivatable group” value is given as 95%.
In the case of `C#CCCCC1(CCCCCCCCC(=O)O)N=N1` [C16pacFA, 9-(3-Pent-4-ynyl-3-H-diazirin-3-yl)-nonanoic acid], the “morphological differences after labeling” value with CHO-CGalT cells [2] is recorded as “No morphological differences were observed”. In addition, in the data set on CHO-CGalT cells [3], the “incorporation into sphingomyelin (SM)” value is on record as “no incorporation”.
In the case of `C#CCCCC1(CCCCCCCCC(=O)O)N=N1` [C15pacFA, 9-(3-pent-4-ynyl-3-H-diazirin-3-yl)-nonanoic acid], the “fluorescent structures after click reaction with alexa-azide” value in the data set with HeLa cells is “Fluorescent structures were only visible in the UV irradiated samples”. The labeling of lysozyme result at lysozyme was “no labeling of lysozyme was observed”. Also, the “morphological differences after labeling” value with CHO-CGalT cells [2] is given as “No morphological differences were observed”. Moreover, the “labeling of BSA” value in data set [4] is recorded as “BSA could be labeled”. In addition, the “proteins labeled by photo-affinity labeling (in-gel fluorescence)” value in data set [5] is listed as “not only membrane proteins were labeled by means of photo-affinity labeling but also cytosolic proteins”. In the data set on CHO-CGalT cells [3], the “incorporation into sphingomyelin (SM)” value was “No significant incorporation”. Moreover, the “incorporation into phosphatidylcholine (pacPC species)” value with CHO-CGalT cells [3] (precursor ion scan 184 Da) was “led to additional peaks corresponding to pacPC species”.
For `C#CCc1ccccc1` [3-phenyl-1-propyne], the “stability towards UV irradiation” value in data set [6] is listed as “stability of alkynes towards UV irradiation”.
